How the values were obtained:
U2OS [1] = test: (§1) Here: values are normalized to the positive (DMSO; basel flux = defined as 100% suppression) and negative (250nM Torin1; mTOR inhibitor; maximal inducer of autophagy defined as 0% suppression) control compounds and represented as % of ER-phagy suppression. […] The impact of autophagy induction on cells is complex and depends on the affected target. […] Of note, treatment concentrations may be sub-optimal for specific compounds, leading to false negative annotations.; assay type: functional, Homo sapiens; conditions: Compound Concentration 1 uM, Culturing Media DMEM, 1 % Penicillin/Streptomycin, 10% Fetal bovin serum Add-On: blasticidin, Screening Media Control DMEM, 10% Fetal bovin serum Add-On: 1 µg/ml Doxycyclin, Screening Media Samples DMEM, 10% Fetal bovin serum Add-On: 1 µg/ml Doxycyclin 250nM Torin1
U2OS [2] = test: as §1; assay type: functional, Homo sapiens; conditions: Compound Concentration 1 uM, Culturing Media DMEM, 1 % Penicillin/Streptomycin, 10% Fetal bovin serum Add-On: blasticidin, Screening Media Control DMEM, 10% Fetal bovin serum Add-On: 1 µg/ml Doxycyclin, Screening Media Samples DMEM, 10% Fetal bovin serum Add-On: 1 µg/ml Doxycyclin 250nM Torin1; remark: listed apart in the source

Structure (SMILES)	ER-phagy suppression (U2OS [1]; Timepoint 12 hours) [%]	ER-phagy suppression (U2OS [1]; Timepoint 24 hours) [%]	ER-phagy suppression (U2OS [1]; Timepoint 36 hours) [%]	ER-phagy suppression (U2OS [1]; Timepoint 60 hours) [%]	ER-phagy suppression (U2OS [2]; Timepoint 12 hours) [%]	ER-phagy suppression (U2OS [2]; Timepoint 24 hours) [%]	ER-phagy suppression (U2OS [2]; Timepoint 36 hours) [%]	ER-phagy suppression (U2OS [2]; Timepoint 54 hours) [%]
CC1=C(C#N)[C@@H](c2ccc3[nH]nc(C)c3c2)C(C#N)=C(c2ccc(Cl)cc2)N1 [BAY-827]	-21.2779	-26.9283	-30.4241	-34.9366	-1.516	-21.7023	-24.9956	-14.7052
CN1CCN(Cc2cc(NC(=O)c3ccc4c(c3)CN(c3ccccc3)CC4)cc(C(F)(F)F)c2)CC1	-14.1546	-18.3974	-8.125	-14.9547	8.416	6.996	11.6775	26.4341
NC(=O)c1ccc2[nH]c(-c3ccc(Oc4ccc(Cl)cc4)cc3)nc2c1	-30.239	-28.4978	-29.0961	-19.7873	-2.841	-13.7146	-23.7031	-21.3336
CCOc1cn(-c2ccc(F)cc2C)nc1C(=O)Nc1ccc(Oc2ccnc3cc(OC)c(OC)cc23)c(F)c1	7.441	-3.201	13.658	1.882	8.613	-11.0646	-14.9155	-19.0742
O=C(O)c1ccc2c(c1)nc(Nc1cccc(Cl)c1)c1ccncc12 [SILMITASERTIB]	-10.7244	-5.006	5.808	11.5407	22.7695	17.6388	22.3356	12.8536
C[C@@H](NC(=O)Nc1cc2[nH]ncc2c(CO)n1)c1ccccc1 [ERKi]	-20.6264	1.384	-7.522	-12.4094	6.504	-3.07	-4.694	-0.09872
O=c1cc(N2CCOCC2)oc2c1ccc1ccccc12	-2.095	14.4083	8.467	13.3057	4.944	-13.6038	-17.5746	-11.078
C[C@H](NC(=O)Nc1cc2[nH]ncc2c(CO)n1)c1ccccn1 [ERKi-NC]	-23.4889	-22.8439	-26.5362	-20.3879	16.3207	-4.124	-11.6627	-9.3851
C[C@@H]1CN(CC(=O)Nc2ccc3c(c2)Cc2cccc(-c4cc(=O)cc(N5CCOCC5)o4)c2S3)C[C@H](C)O1	56.3007	45.431	40.5334	35.1087	73.6735	67.8887	67.4998	71.8155
O=c1[nH]c2ccc(Cl)cc2c(N[C@@H]2CN3CCC2CC3)c1-c1nc2ccccc2[nH]1	-7.286	62.247	75.9097	86.9183	27.312	66.3141	83.8118	95.864
CCCCN(Cc1ccccc1)C(=O)c1ccc(S(=O)(=O)Nc2ccccc2)cc1	-1.971	-6.76	-4.753	-26.4705	-7.8361	-20.651	-23.4672	-25.4681
NC(=O)c1ccc(N(C(N)=O)c2c(F)cccc2F)nc1-c1ccc(F)cc1F [VX-702]	31.8026	34.6886	33.7769	30.7144	0.2881	-13.3426	-11.8024	0.1703
O=C1Nc2ccc(I)cc2/C1=C/c1cc(Br)c(O)c(Br)c1	-13.4504	-24.7924	-11.7006	-13.1814	-35.4464	-41.788	-41.037	-30.605
CC1=C(C(=O)Nc2cc3cn[nH]c3cc2F)C(c2ccc(C(F)(F)F)cc2)CC(=O)N1 (centres undefined)	-7.959	-2.49	15.1812	22.9185	-59.3717	-37.062	5.409	47.7199
Fc1ccc(-c2ncn(Cc3nc[nH]n3)c2-c2ccnc3[nH]ccc23)cc1	1.163	2.249	8.909	19.5799	-8.055	-11.2707	-18.4467	-16.7104
COc1ccccc1-c1cc(Nc2cccc(CS(N)(=O)=O)c2)ncn1	64.2077	50.2137	56.273	39.1119	-2.879	2.7876	9.9584	17.8632
Cc1c(NC(=O)c2ccc(C(C)(C)C)cc2)cccc1-c1cn(C)c(=O)c(Nc2ccc(C(=O)N3CCOCC3)cc2)n1	-0.6222	-11.9993	-14.8569	-20.2284	-19.8949	-28.4876	-32.1203	-24.8408
CCc1cncnc1N1CCN(Cc2nc3cc(C(F)(F)F)ccc3[nH]2)CC1	-3.169	-14.0511	-20.9455	-35.5971	-12.878	-26.39	-24.8445	-23.0115
C[C@@H]1CN(c2cc(-c3n[nH]c4ccc(OC5(C)CC5)cc34)ncn2)C[C@H](C)O1 [MLi-2]	9.792	2.978	-16.0797	-15.9794	2.807	-15.8401	-22.331	-20.0591
CC(C)NC(=O)N1CC[C@H](NC2=Nc3cc(F)ccc3N(CC(F)F)c3ccc(Cl)cc32)C1	-0.3952	-5.126	-3.1	-4.344	-34.3378	-42.165	-48.481	-44.6081
Cc1cc(NC(=O)c2cccc(S(F)(F)(F)(F)F)c2)cc(-n2ccn3nc(-c4cccnc4)cc23)c1 [BAY-309]	7.299	1.781	3.502	-2.656	7.105	-8.178	-9.412	-2.397
O=c1cc(-c2cccc3c2Sc2ccccc2S3)oc(N2CCOCC2)c1 [KU-55933]	55.4841	58.138	50.8459	57.1444	6.867	-4.052	-12.4961	-6.9587
CN(C)C(=O)Cn1cc(-c2ccc(-c3nnc4ccccn34)cc2)cn1	-17.2141	-21.3564	-13.477	-20.2221	-13.7824	-23.4109	-24.5481	-15.5458

Source: ChEMBL document CHEMBL5724696, “Autophagy assay results for EUbOPEN Chemogenomics Library” (2024)
